From US20210052632A1, “SELECTIVE PARP1 INHIBITORS TO TREAT CANCER” (Cambridge Enterprise Limited, priority 2018, published 2021)
Where two headings read alike, the source gives them in different places.

Tests used:
[1] = target: T1, human full length active PARP1 (Homo sapiens, UniProt P09874); assay: PARP inhibitor assay, fluorescence-based (PARP1 Enzyme Activity Assay kit), PARP1; type: biochemical
T1 construct: human full length active PARP1 (CS207770, Merck); purchased Merck CS207770
From the text: (§1) The PARP inhibitor assay is a direct fluorescence-based concentration measurement of reaction product formation. The assay reagents are sold as a commercial kit (see http://www.merckmillipore.com/GB/en/product/PARP1-Enzyme-Activity-Assay,MM_NF-17-10149). To measure PARP inhibition, the NAD+ substrate concentration should be set at Km (the Michaelis constant) to enable identifications of all types of inhibitors (competitive, uncompetitive and non-competitive (allosteric) (the latter represents a mode of action of Zn-finger inhibitors)), direct calculation of inhibitor potency (Ki) and in vivo modelling. (See in and literature sited therein: Michael G. Acker, Douglas S. Auld. Considerations for the design and reporting of enzyme assays in high-throughput screening applications. Perspectives in Science (2014) 1, 56-73).
(§2) PARP activity and inhibition was measured for human full length active PARP1 (CS207770, Merck), PARP2 (ab198766, Abeam) and PARP3 (ab79638, Abeam) proteins. Inhibitor compounds (Sodium Aurothiomalate and Aurothioglucose, Sigma-Aldrich and Auranofin, Bio-Techne) at different concentrations (1, 10 and 100 nM, 1, 10 and 100 μM final) were added to the reaction buffer, concocted as a 1:1 mixture of Merck kit buffer with 50 mM Tris-HCl, 100 mM NaCl, 5 mM MgCl2, 0.05% Tween-20, pH 8.0, Sigma), and incubated with PARP1 (2.5 ng/μL final), PARP2 (2.2 ng/μL final) or PARP3 (55 ng/μL final) at room temperature for 30 min.
(§3) Further, activated DNA (2 ng/μL final), […] (60 and 400 μM final for PARP1/2 and PARP3, respectively) and Nicotinamidase (200 ng/μL final) were added and incubated at 37° C. for 45 min. Total reaction volume was 25 μL.
(§4) Controls were executed as follows: • 1. Control of 0% inhibition contained reaction sample without inhibitor; • 2. Control of 100% inhibition of PARP1/2/3 activity contained reaction sample without β-NAD; and • 3. Control of 100% inhibition of DNA-dependent activity contained reaction sample without DNA.
(§5) After the plates were cooled down to room temperature, 25 μL of Merck proprietary reagent was added to the reaction mixture and incubated at mild shaking for 45 min. Fluorescence measurement was carried out at excitation wavelength of 410 nm and emission of 460 nm in Fluostar Omega microplate reader (BMG Labtech).
(§6) Total PARP1/2/3 activity was calculated as a difference between control (1) and control (2). DNA-independent activity was calculated as a difference between control (1) and control (3). DNA-dependent activity was calculated as the difference between the total PARP1/2/3 activity and DNA-independent activity. […] However, potentially up to 30% of PARP1 activity can be DNA-independent.
(§7) Inhibitory values were converted into percentages according to controls. Controls (1) and (3) were used in the case of PARP1, because only inhibition of DNA-dependent activity was observed, and the results are shown in FIG. 2. Controls (1) and (2) were used in the case of PARP2/3, because inhibition of total PARP2/3 activity (both DNA-dependent and DNA-independent reactions) was observed. FIGS. 3 and 4 show the percentage inhibition of PARP1 and PARP2 for different concentrations of aurothiomalate and aurothioglucose, respectively.

[2] = target: T2, human full length active PARP2 (Homo sapiens, UniProt Q9UGN5); assay: PARP inhibitor assay, fluorescence-based, PARP2; type: biochemical
T2 construct: human full length active PARP1 (CS207770, Merck), PARP2 (ab198766, Abeam); purchased Abcam ab198766
T2 sequence (Q9UGN5 whole entry): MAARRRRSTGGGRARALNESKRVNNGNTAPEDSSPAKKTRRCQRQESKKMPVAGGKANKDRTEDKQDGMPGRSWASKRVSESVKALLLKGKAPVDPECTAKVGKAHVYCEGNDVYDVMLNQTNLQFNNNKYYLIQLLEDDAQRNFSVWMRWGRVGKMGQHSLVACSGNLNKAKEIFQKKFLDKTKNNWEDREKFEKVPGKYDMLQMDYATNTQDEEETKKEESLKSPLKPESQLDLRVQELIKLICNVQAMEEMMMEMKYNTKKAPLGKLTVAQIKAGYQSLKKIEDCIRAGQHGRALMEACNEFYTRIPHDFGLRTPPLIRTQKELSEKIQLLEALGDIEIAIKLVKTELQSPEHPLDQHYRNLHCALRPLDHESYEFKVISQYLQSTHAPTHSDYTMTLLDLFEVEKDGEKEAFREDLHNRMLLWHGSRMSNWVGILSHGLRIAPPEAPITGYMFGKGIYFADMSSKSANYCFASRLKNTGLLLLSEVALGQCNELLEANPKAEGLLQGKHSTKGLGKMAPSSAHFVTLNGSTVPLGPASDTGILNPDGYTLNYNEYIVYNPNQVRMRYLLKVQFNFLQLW
From the text: as §1, §2, §3, §4, §5, §6, §7

[3] = target: T3, human full length active PARP3 (Homo sapiens, UniProt Q9Y6F1); assay: PARP inhibitor assay, fluorescence-based, PARP3; type: biochemical; conditions: for IC50: inhibition of total PARP3 activity (controls 1 and 2), 400 μM β-NAD
T3 construct: human full length active PARP1 (CS207770, Merck), PARP2 (ab198766, Abeam) and PARP3 (ab79638, Abeam) proteins; purchased Abcam ab79638
T3 sequence (Q9Y6F1 1-533): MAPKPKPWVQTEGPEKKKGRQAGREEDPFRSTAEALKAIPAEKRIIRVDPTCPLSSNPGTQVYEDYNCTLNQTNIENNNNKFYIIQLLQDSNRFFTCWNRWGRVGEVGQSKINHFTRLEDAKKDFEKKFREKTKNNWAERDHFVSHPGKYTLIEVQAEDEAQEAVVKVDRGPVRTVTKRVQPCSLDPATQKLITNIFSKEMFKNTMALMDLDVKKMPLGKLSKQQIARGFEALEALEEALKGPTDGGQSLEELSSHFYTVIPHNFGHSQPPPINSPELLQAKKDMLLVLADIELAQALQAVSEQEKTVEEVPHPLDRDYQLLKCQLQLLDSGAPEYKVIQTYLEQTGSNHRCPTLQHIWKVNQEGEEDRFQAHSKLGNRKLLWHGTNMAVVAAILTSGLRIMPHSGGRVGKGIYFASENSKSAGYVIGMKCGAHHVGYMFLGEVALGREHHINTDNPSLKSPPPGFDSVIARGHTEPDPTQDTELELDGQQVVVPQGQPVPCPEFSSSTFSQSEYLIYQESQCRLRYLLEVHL
From the text: as §1, §2, §3, §4, §5, §6
Inhibitory values were converted into percentages according to controls. […]

[4] = system: rats fed a high adenine/low protein diet (chronic kidney disease); assay: Bone density in rat model on high adenine/low protein diet (CKD), SEM/TEM of long limb bone cross sections; type: in vivo; conditions: 50 mg/kg/day for 6 weeks; cortical area of long limb bone cross section; vs control and untreated CKD-diet rats; FIG. 8b
Protocol: The effects of minocycline on bone calcification processes were evaluated in an in vivo rat model. The rats were fed a high adenine/low protein diet in order to develop chronic kidney disease (CKD) and associated hyperphosphatemia and medial vascular calcification. It is also expected to cause increased rates of bone turnover, allowing the inventors to examine whether inhibition of PARP2 enzymatic activity during bone remodelling affected mineralization. 14 of the rats on the high adenine/low protein diet were treated with 50 mg/kg/day of minocycline for 6 weeks. At the end of the study period cross sections of the long limb bone were analysed using scanning electron microscopy (SEM) and transmission electron microscopy (TEM), see FIG. 7, and the area fraction of solid bone in the cortical area of the bone cross section was quantified from these images, see FIG. 8. Statistical significance was determined by Mann-Whitney test.

[5] = inhibition of DNA-dependent activity (controls 1 and 3), 60 μM β-NAD, activated DNA, read-out: IC50 PARP1
[6] = inhibition of total PARP2 activity (controls 1 and 2), 60 μM β-NAD, read-out: IC50 PARP2

T1 sequence (P09874 whole entry): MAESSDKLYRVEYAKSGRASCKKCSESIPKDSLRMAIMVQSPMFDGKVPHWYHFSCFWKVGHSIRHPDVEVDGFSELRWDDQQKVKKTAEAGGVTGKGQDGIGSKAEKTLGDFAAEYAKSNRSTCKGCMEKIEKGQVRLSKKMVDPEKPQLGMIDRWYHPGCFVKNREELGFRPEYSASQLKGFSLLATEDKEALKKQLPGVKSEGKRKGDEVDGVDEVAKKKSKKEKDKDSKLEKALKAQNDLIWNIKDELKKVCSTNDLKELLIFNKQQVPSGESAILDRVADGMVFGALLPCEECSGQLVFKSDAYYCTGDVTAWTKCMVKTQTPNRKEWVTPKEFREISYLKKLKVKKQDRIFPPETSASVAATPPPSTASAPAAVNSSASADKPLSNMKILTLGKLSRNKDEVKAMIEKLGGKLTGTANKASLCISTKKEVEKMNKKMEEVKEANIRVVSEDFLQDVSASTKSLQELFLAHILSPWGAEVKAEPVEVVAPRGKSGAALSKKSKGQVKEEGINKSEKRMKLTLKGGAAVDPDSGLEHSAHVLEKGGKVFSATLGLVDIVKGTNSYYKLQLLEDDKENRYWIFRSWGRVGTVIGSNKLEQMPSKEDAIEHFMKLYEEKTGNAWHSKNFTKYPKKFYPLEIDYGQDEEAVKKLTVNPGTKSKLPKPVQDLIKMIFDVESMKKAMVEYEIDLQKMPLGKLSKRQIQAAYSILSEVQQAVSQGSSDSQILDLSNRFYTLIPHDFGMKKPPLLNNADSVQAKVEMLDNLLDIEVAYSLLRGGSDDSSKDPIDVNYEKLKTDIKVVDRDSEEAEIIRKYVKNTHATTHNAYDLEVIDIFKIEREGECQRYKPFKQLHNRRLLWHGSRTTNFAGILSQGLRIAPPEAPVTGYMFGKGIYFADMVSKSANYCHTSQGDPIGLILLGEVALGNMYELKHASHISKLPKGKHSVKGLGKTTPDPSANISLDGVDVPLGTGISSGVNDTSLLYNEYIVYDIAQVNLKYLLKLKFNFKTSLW

Compound | PARP1 inhibition (in words) ([1]; FIG. 2 and Table 1) | IC50 [1, 5] | PARP2 inhibition (in words) [2] | IC50 [2, 6] | PARP3 inhibition (in words) [3] | IC50 [3] | DNA-independent PARP1 activity in the presence of the compound [1] | IC50 [1] | reduction in the area fraction of solid bone [4] | IC50 ([1]; assay of Example 1, FIG. 6, read-out: IC50 PARP1) | IC50 [2] | PARP2 vs PARP1 selectivity factor ([2]; ratio of PARP1 and PARP2 IC50)
CC(=O)OC[C@H]1O[C@@H]([S-])[C@H](OC(C)=O)[C@@H](OC(C)=O)[C@@H]1OC(C)=O.CCP(CC)CC.[Au+] [Auranofin] | only inhibits PARP1 and PARP2 at very high concentrations | 1400 ± 98 nM | only inhibits PARP1 and PARP2 at very high concentrations | 1160 ± 81 nM | – | – | – | – | – | – | – | –
OC[C@H]1OC([S][Au])[C@H](O)[C@@H](O)[C@@H]1O (some centres unmarked) [Aurothioglucose] | – | – | not inhibited | 4450 ± 623 nM | not inhibited | 1140 ± 20 nM | maintained | 120 ± 7 nM | – | – | – | –
CN(C)c1ccc(O)c2c1C[C@H]1C[C@H]3[C@H](N(C)C)C(O)=C(C(N)=O)C(=O)[C@@]3(O)C(O)=C1C2=O [minocycline] | – | – | – | – | – | – | – | – | 25% | 204000 nM | 2800 nM | greater than 70 ×
Sodium Aurothiomalate | – | 48 ± 7 nM | not inhibited | 1190 ± 190 nM | not inhibited | 1160 ± 93 nM | maintained | – | – | – | – | –
